{"source": "patent US9763973B2", "about": "“Agent for treating HTLV-I associated myelopathy” (NAGASAKI UNIVERSITY, priority 2011, dated 2017)", "key": {"[1]": {"tested_on": "HAM", "settings": "recent case-control study; non-patent document 3; cited from earlier work"}, "[2]": {"tested_on": "HTLV-I provirus", "settings": "anti-HTLV-I therapy with HDAC inhibitor; cited from earlier work"}, "[3]": {"tested_on": "HTLV-I", "settings": "in vitro; non-patent documents 4-6; cited from earlier work"}, "[4]": {"tested_on": "HAM patients", "settings": "in vivo test; non-patent documents 4 and 5; cited from earlier work"}, "[5]": {"tested_on": "peripheral blood lymphoblastogenesis", "experiment": "lymphoblastogenesis test (stimulation index to PHA), clinical test in HAM patients", "format": "in vivo, human", "procedure": "(§1) Subject: 12 cases of HAM patients (9 females, 3 males, age; 49-77 years old, duration of illness; 3-52 years) (Table 1).\n(§2) Test method: Sodium pentosan polysulfate was subcutaneously administered by 25 mg for the first time (0 week), 50 mg 1 week later, 100 mg once a week from the second week to the 7th week to the brachial region. The test medicament was used in 1 ml ampoule of sodium pentosan polysulfate (100 mg/ml) supplied by bene pharmaChem of Germany.\n(§3) Test items: the subjective symptoms and neurological observations (including spasticity, gait time, time for descending stairs, motility dysfunction level and the like) were checked at the time of screening, week 0 (initial administration), week 8 from the start of treatment (week 1 after completion of treatment) and week 12 from the start of treatment (week 5 after completion of treatment). Similarly, general clinical tests, and immunological (serum soluble IL-2 receptor (sIL-2R), peripheral blood lymphoblastogenesis test) and virological tests (amount of peripheral blood HTLV-I provirus (real-time quantitative PCR method), anti-HTLV-I antibody titer) were performed."}, "[6]": {"tested_on": "serum soluble IL-2 receptor (sIL-2R)", "experiment": "serum soluble IL-2 receptor (sIL-2R), clinical test in HAM patients", "format": "in vivo, human", "settings": "for sIL-2R: individual HAM cases, same s.c. regimen", "procedure": "as §1, §2, §3"}, "[7]": {"tested_on": "anti-HTLV-I antibody", "experiment": "anti-HTLV-I antibody titer (PA method), clinical test in HAM patients", "format": "in vivo, human", "settings": "start vs week 8, week 12 (Table 4)", "procedure": "as §1, §2, §3"}, "[8]": {"tested_on": "HTLV-I provirus", "experiment": "amount of peripheral blood HTLV-I provirus (real-time quantitative PCR), clinical test in HAM patients", "format": "in vivo, human", "settings": "for HTLV-I provirus amount, average: average of 12 cases, average at start 1268; for HTLV-I provirus amount: individual HAM cases, same s.c. regimen", "procedure": "Therefore, for virological evaluation, the amount of peripheral blood HTLV-I provirus was monitored, immunological markers predicted to vary depending on a decrease in the provirus was simultaneously monitored, and the effect of pentosan polysulfate on HTLV-I was verified. In addition, the clinical effects (lower leg motility function etc.) were evaluated simultaneously with the measurement of the virus amount, and the correlation between a decrease in the virus amount and the clinical effect was confirmed. Furthermore, the amount of HTLV-I provirus was measured before and after administration of pentosan polysulfate, and a virus, amount decreasing effect of pentosan polysulfate was confirmed, whereby the possibility of providing a causal therapy was verified. Subject: 12 cases of HAM patients (9 females, 3 males, age; 49-77 years old, duration of illness; 3-52 years) (Table 1). Test method: Sodium pentosan polysulfate was subcutaneously administered by 25 mg for the first time (0 week), 50 mg 1 week later, 100 mg once a week from the second week to the 7th week to the brachial region. The test medicament was used in 1 ml ampoule of sodium pentosan polysulfate (100 mg/ml) supplied by bene pharmaChem of Germany."}, "[9]": {"tested_on": "HAM patients", "experiment": "10 m gait time, clinical test in HAM patients", "format": "in vivo, human", "settings": "for 10 m gait: individual HAM cases, same s.c. regimen; for 10 m gait, mean value: mean of tested cases", "text": "(§4) The main symptoms of HAM are motility/gait disorders and the like. As items for the clinical evaluation of these symptoms, lower leg motility function (walking time, time for descending stairs, spasticity, motility dysfunction level etc.) tests and the like can be mentioned. By evaluating these items before and after administration of pentosan polysulfate, the treatment effect of subcutaneous injection of pentosan polysulfate on HAM was verified.\nas §1, §2, §3"}, "[10]": {"tested_on": "HAM patients", "experiment": "30 m gait time, clinical test in HAM patients", "format": "in vivo, human", "settings": "for 30 m gait: individual HAM cases, same s.c. regimen; for 30 m gait, mean value: mean of tested cases", "text": "as §4, §1, §2, §3"}, "[11]": {"tested_on": "HAM patients", "experiment": "time for descending stairs (10 stairs), clinical test in HAM patients", "format": "in vivo, human", "settings": "for descending stairs (10 stairs): individual HAM cases, same s.c. regimen; for descending stairs, mean value: mean of tested cases", "text": "as §4, §1, §2, §3"}, "[12]": {"tested_on": "HAM patients", "experiment": "spasticity on modified Ashworth scale (MAS), clinical test in HAM patients", "format": "in vivo, human", "settings": "individual HAM cases; same s.c. regimen; blank = spasticity absent from the start", "text": "Spasticity is one type of hypertonia, and caused by an abnormal increase in the muscle stretch reflex. Clinically, spasticity is a speed-dependent resistance to stretch, which is defined to be the state wherein the muscle is excessively contracted due to the lack of suppression from the central nervous system, which finally leads to an increase in the reflection. As a measurement method of spasticity, the Ashworth scale is well known, and its modified version by Bohannon is often used clinically (modified Ashworth scale; Bohannon R W, Smith M B: Interrater reliability of a Modified Ashworth Scale of Muscle Spasticity. Phys Ther 67: 206-207, 1987). […]\nas §3"}, "[13]": {"tested_on": "HAM patients", "experiment": "motility dysfunction level (Osame scale), clinical test in HAM patients", "format": "in vivo, human", "settings": "12 HAM cases; 0-13 scale; changes not found in other cases", "text": "As regards the gait disorder due to HAM-related spastic paraplegia, the gait disorder in the present specification includes not only disorder in walking but also disorder in running and ascending and descending stairs, as well as wheelchair state and bedridden state due to gait function disorders. […]\nas §3, with “performed. […]” for “performed.”"}}, "note": "Where “and” joins values, the source holds several entries; their conditions need not be identical. Equal values may be shown once.", "data": [{"compound": "zidovudine+lamivudine", "values": [{"measurement": "effectiveness as anti-HTLV-I therapy for HAM", "setting": "[1]", "result": "effectiveness thereof was not verified"}]}, {"compound": "CCCC(CCC)C(=O)O", "note": "[valproic acid]", "values": [{"measurement": "effect on amount of peripheral blood HTLV-I provirus", "setting": "[2]", "result": "transiently and markedly increases the amount of peripheral blood HTLV-I provirus"}]}, {"compound": "heparin", "values": [{"measurement": "HTLV-I infection inhibitory action", "setting": "[3]", "result": "shows an HTLV-I infection inhibitory action"}, {"measurement": "clinical effectiveness for HAM patients", "setting": "[4]", "result": "clinically effective for HAM patients"}]}, {"compound": "sodium pentosan polysulfate", "values": [{"measurement": "lymphoblastogenesis test (stimulation index to PHA)", "setting": "[5]; individual HAM cases (table row = case no.), s.c. 25 mg wk 0, 50 mg wk 1, 100 mg weekly wk 2-7, week 8 from start", "result": "9.2 and 12.4 and 4.7 and 7.9 and 16.3 and 14 and 13.3 and 9.4 and 3.7 and 9.7 and 11.9 and 8.2"}, {"measurement": "lymphoblastogenesis test (stimulation index to PHA)", "setting": "[5]; individual HAM cases, same s.c. regimen, week 12 from start (week 5 after completion)", "result": "6.1 and 7.1 and 6.7 and 15 and 18.1 and 24.7 and 17.2 and 9.3 and 4.9 and 9.2 and 12.2 and 6.9"}, {"measurement": "lymphoblastogenesis test, significance of change", "setting": "[5]; start vs week 8, week 12 (Table 2)", "result": "significant difference was not observed"}, {"measurement": "sIL-2R", "setting": "[6]; week 2", "result": "511 pg/mL and 1462 pg/mL and 1086 pg/mL and 933 pg/mL and 1475 pg/mL and 1741 pg/mL and 1524 pg/mL and 1405 pg/mL and 2264 pg/mL and 1256 pg/mL and 1688 pg/mL and 1474 pg/mL"}, {"measurement": "sIL-2R", "setting": "[6]; week 8", "result": "577 pg/mL and 1482 pg/mL and 904 pg/mL and 1152 pg/mL and 1475 pg/mL and 1551 pg/mL and 1460 pg/mL and 1954 pg/mL and 2420 pg/mL and 1452 pg/mL and 1774 pg/mL and 1964 pg/mL"}, {"measurement": "sIL-2R", "setting": "[6]; week 12", "result": "627 pg/mL and 1357 pg/mL and 914 pg/mL and 1073 pg/mL and 1557 pg/mL and 1706 pg/mL and 1716 pg/mL and 1864 pg/mL and 2516 pg/mL and 1480 pg/mL and 1882 pg/mL and 1774 pg/mL"}, {"measurement": "soluble IL-2 receptor (sIL-2R) test, significance of change", "setting": "[6]; start vs weeks 2, 8, 12 (Table 3)", "result": "significant difference was not observed"}, {"measurement": "anti-HTLV-I antibody test, significance of change", "setting": "[7]", "result": "significant difference was not observed"}, {"measurement": "HTLV-I provirus amount, significance of change", "setting": "[8]; all 12 cases, week 8 from start of treatment", "result": "no significant difference"}, {"measurement": "average decrease in amount of HTLV-I provirus", "setting": "[8]; all 12 cases, week 8 from start of treatment vs start", "result": "about 9%"}, {"measurement": "HTLV-I provirus amount, average", "setting": "[8]; week 8", "result": 1153, "unit": "copy number/10^4 PBMC"}, {"measurement": "HTLV-I provirus amount, average", "setting": "[8]; week 12", "result": 1241, "unit": "copy number/10^4 PBMC"}, {"measurement": "HTLV-I provirus amount", "setting": "[8]; week 8", "result": "1140 copy number/10^4 PBMC and 648 copy number/10^4 PBMC and 699 copy number/10^4 PBMC and 503 copy number/10^4 PBMC and 999 copy number/10^4 PBMC and 2149 copy number/10^4 PBMC and 479 copy number/10^4 PBMC and 830 copy number/10^4 PBMC and 2030 copy number/10^4 PBMC and 1621 copy number/10^4 PBMC and 837 copy number/10^4 PBMC and 1900 copy number/10^4 PBMC"}, {"measurement": "HTLV-I provirus amount", "setting": "[8]; week 12", "result": "1750 copy number/10^4 PBMC and 668 copy number/10^4 PBMC and 697 copy number/10^4 PBMC and 471 copy number/10^4 PBMC and 1032 copy number/10^4 PBMC and 2052 copy number/10^4 PBMC and 460 copy number/10^4 PBMC and 767 copy number/10^4 PBMC and 2380 copy number/10^4 PBMC and 1971 copy number/10^4 PBMC and 853 copy number/10^4 PBMC and 1794 copy number/10^4 PBMC"}, {"measurement": "HTLV-I provirus amount, course after completion of administration", "setting": "[8]; week 5 after completion of administration (week 12)", "result": "a tendency of returning to the amount at the start of the treatment"}, {"measurement": "10 m gait", "setting": "[9]; week 8", "result": "7.5 s and 5.5 s and 15.8 s and 6.4 s and 8.9 s and 11.5 s and 6.5 s and 32.5 s and 13.9 s and 18.5 s"}, {"measurement": "10 m gait", "setting": "[9]; week 12", "result": "7.1 s and 5.3 s and 16.9 s and 6.2 s and 9.7 s and 12.5 s and 6.5 s and 31.9 s and 15.8 s and 19.9 s"}, {"measurement": "10 m gait, mean value", "setting": "[9]; week 8, mean at start 14.7 (Table 6 in seconds)", "result": 12.7}, {"measurement": "10 m gait, mean value", "setting": "[9]; week 12, mean at start 14.7", "result": 13.2}, {"measurement": "30 m gait", "setting": "[10]; week 8", "result": "22.1 s and 16.8 s and 52.3 s and 20.8 s and 26.7 s and 36.5 s and 20.5 s and 96.5 s and 41.6 s"}, {"measurement": "30 m gait", "setting": "[10]; week 12", "result": "22 s and 16.6 s and 59.6 s and 19.8 s and 28.6 s and 38.1 s and 20.5 s and 97.5 s and 45.4 s"}, {"measurement": "30 m gait, mean value", "setting": "[10]; week 8, mean at start 41.7 (Table 7 in seconds)", "result": 37.1}, {"measurement": "30 m gait, mean value", "setting": "[10]; week 12, mean at start 41.7", "result": 38.7}, {"measurement": "descending stairs (10 stairs)", "setting": "[11]; week 8", "result": "4.8 seconds (2×) and 4 seconds and 17.5 seconds and 9.1 seconds (2×) and 7.4 seconds and 4.1 seconds"}, {"measurement": "descending stairs (10 stairs)", "setting": "[11]; week 12", "result": "4.9 seconds and 4 seconds (3×) and 21.2 seconds and 12.4 seconds and 8.7 seconds and 8.9 seconds"}, {"measurement": "descending stairs, mean value", "setting": "[11]; week 8, mean at start 9.3 (Table 8 in seconds)", "result": 7.6}, {"measurement": "descending stairs, mean value", "setting": "[11]; week 12, mean at start 9.3", "result": 8.5}, {"measurement": "improvement of spasticity (evaluated on modified Ashworth scale (MAS))", "setting": "[12]", "result": "(+) (evaluated (+) when either lower leg improved by 1 grade or more)"}, {"measurement": "improvement in motility dysfunction level", "setting": "[13]", "result": "only in one case (from 6 to 5 in week 8)"}, {"measurement": "HTLV-I infection inhibitory action", "setting": "[3]", "result": "very strong HTLV-I infection inhibitory action at a low dose as compared to heparin"}]}]}
